# Source: patent US20250276993A1, “PSEUDO-DISACCHARIDE COMPOUNDS” (UNIVERSITEIT LEIDEN, priority 2022, published 2025)
# Key:
# HPSE [1] = target: T1, HPSE (Homo sapiens, UniProt Q9Y251); assay: cABPP Assay 1, recombinant HPSE; format: biochemical
# T1 sequence (Q9Y251 36-109 limits assumed): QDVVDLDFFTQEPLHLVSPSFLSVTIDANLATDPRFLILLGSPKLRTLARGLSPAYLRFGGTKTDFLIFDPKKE
# T1 sequence (Q9Y251 158-543 limits assumed): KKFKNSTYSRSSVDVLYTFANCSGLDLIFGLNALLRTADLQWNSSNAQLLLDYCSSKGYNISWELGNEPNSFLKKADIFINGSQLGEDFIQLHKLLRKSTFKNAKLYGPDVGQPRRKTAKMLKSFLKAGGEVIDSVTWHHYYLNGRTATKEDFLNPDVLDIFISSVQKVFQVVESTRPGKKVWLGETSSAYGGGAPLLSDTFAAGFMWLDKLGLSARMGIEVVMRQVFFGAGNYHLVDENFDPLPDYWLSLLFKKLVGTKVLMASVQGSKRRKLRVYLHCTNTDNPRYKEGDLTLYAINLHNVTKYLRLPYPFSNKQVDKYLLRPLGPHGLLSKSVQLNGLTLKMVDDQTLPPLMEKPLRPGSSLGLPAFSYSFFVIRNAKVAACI
# human platelet HPSE = target: T2, human platelet HPSE (Homo sapiens, UniProt Q9Y251); assay: cABPP with fluorescence quantitation, platelet lysates, HPSE; format: biochemical; conditions: read-out: IC50 platelet HPSE inhibition
# T2 construct: endogenous in cells; host or cells: human platelet lysates
# T2 sequence (Q9Y251 158-543 limits assumed): T1 sequence (Q9Y251 158-543 limits assumed)
# T2 sequence (Q9Y251 36-109 limits assumed): T1 sequence (Q9Y251 36-109 limits assumed)
# Description: ABP labelling reactions were carried out in Mcllvaine buffer (pH 5.5), 300 mM NaCl. For recombinant proteins 200 fmol of EcGH2, BpHep, AcGH79, HPSE or proHPSE was used (20 nM in 10 μl final reaction volume). For labeling cell lysates, 4-20 μg total protein was used. Labeling reactions were initiated by the addition of ABP compounds 7, 8 or 9 to a final concentration of 100 nM (unless otherwise specified), before incubation for 30 min at 37° C. with shaking. Following labeling, samples were denatured by boiling with Laemmli buffer for 5 min and resolved by SDS-PAGE. Gels were scanned using Typhoon-5 laser scanner platform (Cytiva), using the λEX 635 nm laser and 670BP30 emission filter. For competitive ABPP (cABPP) experiments, protein mixtures were preincubated with inhibitor (or buffer only control) for 1 h at 37° C. with shaking, before the addition of 7 to a final concentration of 100 nM, and subsequent incubation for 30 min at 37° C. with shaking. SDS-PAGE and analysis steps were carried out as above. For quantitative measurements, fluorescently labeled band intensities were calculated using Imagequant (Cytiva), and normalized to the corresponding band in the inhibitor free control lane. cABPP plots were prepared and analyzed using SigmaPlot 14.0 (Systat).
# Further cABPP studies were undertaken using platelet lysates to provide a more physiologically realistic environment. […]
# HPSE [2] = target: T1, HPSE; assay: Fondaparinux cleavage assay; format: biochemical
# HPSE [3] = target: T1, HPSE; assay: HSPG digest assay, recombinant HPSE; format: biochemical
# Description: ECM coated 35 mm culture dishes containing ^35S labelled HS were prepared as previously described (Vlodavsky et al., Curr. Protoc. Cell. Biol., Chapter 10, Unit 10, 14). Briefly, bovine corneal endothelial cells were plated at an initial density of 2×10^5 cells/ml, with 4% dextran T-40 (Sigma) included in the growth medium. Na2^35SO4 (25 μCi/ml) was added to the incubation medium on days 2 and 5 after seeding. On day 12, subendothelial ECM is exposed by dissolving the cells with PBS containing 0.5% Triton X-100 and 20 mM NH4OH, followed by four washes with PBS. For HS-degradation assays, ECM coated dishes were incubated with 200 ng recombinant HPSE in 1 mL reaction mixture (10 mM buffer Phosphate-Citrate pH 6.0, 50 mM NaCl, 1 mM DTT, 1 mM CaCl2) containing HPSE inhibitors or DMSO control. Plates were incubated at 37° C. for 5 h, then assay medium collected and applied to a 0.9×30 cm Sepharose 6B size exclusion column. The Sepharose 6B column was eluted with PBS, and ^35S radioactivity of 0.2 mL fractions quantitated using a liquid scintillation analyzer (Packard BioScience). Digest assays with U87 cell lysates were carried out in a similar fashion, except plates were incubated for 18 h with cell extracts prepared from 1×10^6 U87 glioma cells lysed by 3× freeze/thaw cycles.
# The compounds of the invention were assessed against HPSE degradation of bona fide HSPGs in a physiologically relevant ECM-like environment. Cultured bovine corneal […] cells secrete a subendothelial basement membrane material rich in HSPGs, and their growth in the presence of ^35SO4^2− results in ^35S radiolabeled HSPGs (Vlodavsky et al., Curr Protoc Cell Biol, Chapter 10, Unit 10, 4, 2001). H^35S chains attached to these HSPGs are detectable after solubilization by HPSE, with enzyme inhibition leading to a corresponding reduction of signal.
# U87 glioblastoma cells = assay: Matrigel invasion assay; format: cell-based, human; conditions: 20 μM inhibitor, 4 h
# Description: The Matrigel invasion assay was used to assess the effects of the compounds of the invention on cancer cell aggression. This is an in cellulo model of cell invasion through a HSPG rich basement membrane. The ability of cells to migrate through transwell inserts coated with Matrigel (an ECM secretion from Engelbreth-Holm-Swarm mouse sarcoma cells) correlates well with their in vivo invasive potential (Hall et al., Methods Mol Biol, 1070, 1-11 (2014)).
# 1×10^5 U87 cells in 200 μL DMEM media (without serum) were seeded onto the top chamber of a Matrigel-coated Boyden transwell filter, alongside 20 μM HPSE inhibitor (or PBS control). Cells in the upper chamber were separated by Matrigel from a lower chamber containing 600 μL DMEM, supplemented with 10% FBS. Plates were incubated at 37° C. for 4 h, before fixing cells in 4% (v/v) paraformaldehyde, and staining with 0.5% (w/v) crystal violet. Matrigel and non-migrating cells in the upper side of the Boyden filter were removed by swabbing, then invading cells on the bottom side of the transwell filter imaged for analysis. 10 randomly selected microscopic fields were recorded, and cell invasion calculated using ImageJ, by quantitating the percentage of the field stained by crystal violet. Graphs were plotted using RStudio.
# The Matrigel invasion assay was used to assess the effects of the compounds of the invention on cancer cell aggression. […]
# HPSE [4] = target: T1, HPSE; assay: X-ray crystallography, ligand soaking of HPSE crystals; conditions: crystal soaking
# Description: Xray diffraction data were collected at 100 K at beamlines i03 (HPSE-2, HPSE-3, HPSE-4, EcGUSB-1, BpHep-3), i04 (AcGH79-2, BpHep-2) and i04-1 (Apo-AcGH79, AcGH79-1, AcGH79-3) of the Diamond Light Source UK. Reflections were autoprocessed using the XIA2 pipeline. Complexes were solved by directly refining against their unliganded structures where isomorphous, or else solved by molecular replacement with PHASER (search model PDB accessions: 5E98 (HPSE), 3VNY (AcGH79), 3K46 (EcGUSB), 5BWI (BpHep)). […] Ligand coordinates were built using jLigand. Diagrams were generated using PyMOL.
# HPSE—Well diffracting crystals of HPSE were obtained by the sitting-drop vapor-diffusion method at 20° C. using a well solution containing 0.1 M MES pH 5.5, 0.1 M MgCl2, 17% (w/v) PEG 3350, and a protein to well solution ratio of 200 nl:500 nl. Crystals typically appeared after 1 week. Inhibitor ligand complexes were obtained by transferring HPSE crystals to drops of well solution supplemented with 25% (v/v) ethylene glycol and 1-5 mM inhibitor. Crystals were incubated with ligand for ˜2-4 h, then directly harvested and flash-cooled in LN2 for data collection.
# To better understand the molecular basis of interaction between our inhibitors and their targets, we turned to X-ray crystallography, using ligand soaking to derivatize enzymes in crystallo.
compound,measurement,setting,value
"CC(=O)N[C@H]1[C@@H](O[C@H]2[C@H](O)[C@@H](O)[C@@H]3O[C@@H]3[C@@H]2C(=O)O)O[C@H](COS(=O)(=O)O)[C@@H](O)[C@@H]1O [Compound 3, 4-O-(2-N-acetyl-2-deoxy-6-O-sulfo-D-glucopyranosyl)-glucurono-cyclophellitol]",HPSE inhibition (abrogation of labelling by ABP 7),"HPSE [1]; 1 h preincubation at 37° C., pH 5.5, 100 nM ABP 7",inhibited HPSE at nanomolar concentrations
same,potency against HPSE relative to other compounds,HPSE [1]; cABPP Assay 1,greater potency against HPSE than 2 and 4
same,IC50,human platelet HPSE,~56 nM
same,fold more potent than reference inhibitors #98 (10) and OGT2115 (11),HPSE [2],approximately 2 fold
same,inhibition of HPSE degradation of 35S-labelled HSPGs,"HPSE [3]; 200 ng recombinant HPSE, pH 6.0, 5 h","robust, dose dependent inhibition"
same,concentration giving comparable levels of inhibition,"HPSE [3]; HSPG digest, recombinant HPSE",1 µM
same,Matrigel invasion,U87 glioblastoma cells,significantly reduced Matrigel invasion
same,binding mode in HPSE active site cleft,HPSE [4],covalent linkages between their pseudo-anomeric carbons and the enzyme nucleophile Glu343
